In patent publication US10221158B2, “Heterocyclic constrained tricyclic sulfonamides as anti-cancer agents” (ICAHN SCHOOL OF MEDICINE AT MOUNT SINAI, priority 2015, dated 2019):

Tested on: H1650 lung cancer cells
Experiment: Cell viability assay (MTT, IC50 determination)
Assay type: cell-based
Conditions: Homo sapiens, NCI-H1650, 48 h drug treatment
Protocol: Cell Viability Assays (IC50 Determination)
Cell viability assays were performed according to Denizot, F. and R. Lang, Journal of Immunological Methods, 1986. 89(22): p. 271-277. H1650 lung cancer cells were plated at 150,000 cells per well in a 12 well plate. Twenty-four hours after plating, cells were treated as described with increasing concentrations of drug and control. Forty-eight hours after drug treatment, cells were treated with 100 μL of 3-(4,5-Dimethylthiazol-2-yl)-2,5-diphenyltetrazolium bromide (MTT) and incubated for 2 hours at 37 C. The MTT solution was subsequently replaced with 300 μL of n-propyl alcohol and re-aliquoted to a 96 well plate. Spectrophotometric analysis of each solution was performed using a 96 well plate reader at 600 nm in triplicate.

## O=S(=O)(N[C@@H]1COC[C@H](N2c3ccccc3CCc3ccccc32)[C@H]1O)c1ccc(OC(F)(F)F)cc1 (racemic) [Example 1, Rac-N-((3R,4R,5S)-5-(10,11-dihydro-5H-dibenzo[b,f]azepin-5-yl)-4-hydroxytetrahydro-2H-pyran-3-yl)-4-(trifluoromethoxy)benzenesulfonamide]
  IC50: 15 µM
